The results in this text go back to patent publication EP2033962A1, “Tetracyclic indolopyridines as EG5 inhibitors” (4SC AG, priority 2007, dated 2009).

The test system of this experiment is RKO p27 uninduced (proliferating). As to the kind of experiment: Alamar Blue cell viability assay, anti-proliferative / cytotoxic activity on proliferating cells. The conditions noted are these: Homo sapiens, RKOp27; RKO colon cancer cells, absence of the inducer Ponasterone A, 72 hours incubation; read-out: -log EC50 [mol/l] RKO p27 uninduced (proliferating) (converted). Format: cell-based. How it is done:
The anti-proliferative / cytotoxic activity of the compounds described herein can be tested on subclones of RKO human colon adenocarcinoma cells (Schmidt et al., Oncogene 19, 2423-2429; 2000) using the Alamar Blue cell viability assay (described in O'Brien et al. Eur J Biochem 267, 5421-5426, 2000). The compounds are dissolved as 10 mM solutions in DMSO and subsequently diluted in semi-logarithmic steps. DMSO dilutions are further diluted 1:100 v:v into Dulbecco's modified Eagle's medium (DMEM) containing 10% fetal calf serum to a final concentration twice as much as the final concentration in the test. RKO subclones are seeded into 96 well flat bottom plates at a density of 4000 cells per well in a volume of 50 µl per well. 24 hours after seeding the 50 µl each of the compound dilutions in DMEM medium are added into each well of the 96 well plate. Each compound dilution is tested as triplicates. Wells containing untreated control cells are filled with 50 µl DMEM medium containing 1% DMSO. The cells are then incubated with the substances for 72 hours at 37°C in a humidified atmosphere containing 5% carbon dioxide. To determine the viability of the cells, 10 µl of an Alamar Blue solution (Biosource) are added and the fluorescence is measured at an extinction of 544 nm and an emission of 590 nm. For the calculation of the cell viability the emission value from untreated cells is set as 100% viability and the emission rates of treated cells are set in relation to the values of untreated cells. Viabilities are expressed as % values. The Graphpad Prism program is used for the calculation of EC50 values for anti-proliferative / cytotoxic activity out of the obtained dose-response curves.
To determine the cell cycle specific mode of action, subclones of RKO colon adenocarcinoma cells (RKOp21 or RKOp27 as described by Schmidt et al. in Oncogene 19, 2423-2429; 2000) are seeded into 96 well flat bottom plates at a density of 16000 cells per well in a volume of 50 µl per well in DMEM growth medium with 10% FCS containing 10 µM Ponasterone A. 24 hours after seeding the 50 µl each of the compound dilutions in DMEM medium are added into each well of the 96-well plate. Each compound dilution is tested as triplicates. Wells containing untreated control cells are filled with 50 µl DMEM medium containing 1% DMSO. The cells are then incubated with the substances for 72 hours at 37°C in a humidified atmosphere containing 5% carbon dioxide. To determine the viability of the cells, 10 µl of an Alamar Blue solution (Biosource) are added and the fluorescence is measured at an extinction of 544 nm and an emission of 590 nm. For the calculation of the cell viability the emission value from untreated cells is set as 100% viability and the emission rates of treated cells are set in relation to the values of untreated cells. Viabilities are expressed as % values. The Graphpad Prism program (GraphPad Software, Inc) is used for the calculation of EC50 values out of the obtained dose-response curves. Viability is compared of proliferating cells grown in the absence of the inducer Ponasterone A, versus viability of cells arrested by the expression of ectopic p27Kip1 induced by Ponasterone A.
Take `COc1ccc2[nH]c3c(c2c1)C[C@@]1(C)C(=O)N(CCNC(C)C)CC(=O)N1[C@@H]3c1cccc(O)c1` (racemic) [Example 25, (6RS,12aSR)-6-(3-Hydroxy-phenyl)-2-(2-isopropylamino-ethyl)-10-methoxy-12a-methyl-2,3,6,7,12,12a-hexahydro-pyrazino[1',2':1,6]pyrido[3,4-b]indole-1,4-dione]: the EC50 was no more than 100 nM.
As to `COc1ccc2[nH]c3c(c2c1)C[C@@]1(C)C(=O)N(CCCN2CCCC2)CC(=O)N1[C@@H]3c1cccc(O)c1` (racemic) [Example 28, (6RS,12aSR)-6-(3-Hydroxy-phenyl)-10-methoxy-12a-methyl-2-(3-pyrrolidin-1-yl-n-propyl)-2,3,6,7,12,12a-hexahydro-pyrazino[1',2':1,6]pyrido[3,4-b]indole-1,4-dione], the EC50 was 100 to 1000 nM.
The result for `COc1ccc2[nH]c3c(c2c1)C[C@@]1(C)C(=O)N(CCCN(C)C)CC(=O)N1[C@@H]3c1cccc(O)c1` (racemic) [Example 12, (6RS,12aSR)-2-(3-Dimethylamino-n-propyl)-6-(3-hydroxy-phenyl)-10-methoxy-12a-methyl-2,3,6,7,12,12a-hexahydro-pyrazino[1',2':1,6]pyrido[3,4-b]indole-1,4-dione] reads no more than 100 nM; that for `COc1ccc2[nH]c3c(c2c1)C[C@@]1(C)C(=O)N(CCCN2CCOCC2)CC(=O)N1[C@@H]3c1cccc(O)c1` (racemic) [Example 14, (6RS,12aSR)-6-(3-Hydroxy-phenyl)-10-methoxy-12a-methyl-2-(3-morpholin-4-yl-n-propyl)-2,3,6,7,12,12a-hexahydro-pyrazino[1',2':1,6]pyrido[3,4-b]indole-1,4-dione], 100 to 1000 nM.
`O=C1[C@@H]2Cc3c([nH]c4ccccc34)[C@@H](c3cccc(O)c3)N2C(=O)CN1CCN1CCCC1` (racemic) [Example 6, (6RS,12aSR)-6-(3-Hydroxy-phenyl)-2-(2-pyrrolidin-1-yl-ethyl)-2,3,6,7,12,12a-hexahydro-pyrazino[1',2':1,6]pyrido[3,4-b]indole-1,4-dione]: the EC50 is 100 to 1000 nM.
The result for `CCN(CC)CCCN1CC(=O)N2[C@H](c3cccc(O)c3)c3[nH]c4ccc(OC)cc4c3C[C@@]2(C)C1=O` (racemic) [Example 16, (6RS,12aSR)-2-(3-Diethylamino-n-propyl)-6-(3-hydroxy-phenyl)-10-methoxy-12a-methyl-2,3,6,7,12,12a-hexahydro-pyrazino[1',2':1,6]pyrido[3,4-b]indole-1,4-dione] reads no more than 100 nM; that for `COc1ccc2[nH]c3c(c2c1)C[C@@]1(C)C(=O)N(CCN2CCOCC2)CC(=O)N1[C@@H]3c1cccc(O)c1` (racemic) [Example 13, (6RS,12aSR)-6-(3-Hydroxy-phenyl)-10-methoxy-12a-methyl-2-(2-morpholin-4-yl-ethyl)-2,3,6,7,12,12a-hexahydro-pyrazino[1',2':1,6]pyrido[3,4-b]indole-1,4-dione], 100 to 1000 nM.
The result for `O=C1[C@@H]2Cc3c([nH]c4ccccc34)[C@@H](c3cccc(O)c3)N2C(=O)CN1CCN1CCCCC1` (racemic) [Example 7, (6RS,12aSR)-6-(3-Hydroxy-phenyl)-2-(2-piperidin-1-yl-ethyl)-2,3,6,7,12,12a-hexahydro-pyrazino[1',2':1,6]pyrido[3,4-b]indole-1,4-dione] reads 100 to 1000 nM.
Consider `COc1ccc2[nH]c3c(c2c1)C[C@@]1(C)C(=O)N(CCN(C(C)C)C(C)C)CC(=O)N1[C@@H]3c1cccc(O)c1` (racemic) [Example 19, (6RS,12aSR)-2-(2-Diisopropylamino-ethyl)-6-(3-hydroxy-phenyl)-10-methoxy-12a-methyl-2,3,6,7,12,12a-hexahydro-pyrazino[1',2':1,6]pyrido[3,4-b]indole-1,4-dione], for which the EC50 was no more than 100 nM.
Consider `CCN(CC)CCN1CC(=O)N2[C@H](c3cccc(O)c3)c3[nH]c4ccc(OC)cc4c3C[C@@]2(C)C1=O` (racemic) [Example 15, (6RS,12aSR)-2-(2-Diethylamino-ethyl)-6-(3-hydroxy-phenyl)-10-methoxy-12a-methyl-2,3,6,7,12,12a-hexahydro-pyrazino[1',2':1,6]pyrido[3,4-b]indole-1,4-dione], for which the EC50 is 100 to 1000 nM.
On to `COc1ccc2[nH]c3c(c2c1)C[C@@]1(C)C(=O)N(C)CC(=O)N1[C@@H]3c1cccc(O)c1` (racemic) [Example 10, (6RS,12aSR)-6-(3-Hydroxy-phenyl)-10-methoxy-2,12a-dimethyl-2,3,6,7,12,12a-hexahydro-pyrazino[1',2':1,6]pyrido[3,4-b]indole-1,4-dione], for which the EC50 is 100 to 1000 nM.
As to `COc1ccc2[nH]c3c(c2c1)C[C@@]1(C)C(=O)N(CCN(C)C)CC(=O)N1[C@@H]3c1cccc(O)c1` (racemic) [Example 8, (6RS,12aSR)-2-(2-Dimethylamino-ethyl)-6-(3-hydroxy-phenyl)-10-methoxy-12a-methyl-2,3,6,7,12,12a-hexahydro-pyrazino[1',2':1,6]pyrido[3,4-b]indole-1,4-dione], the EC50 was no more than 100 nM.
Take `COc1ccc2[nH]c3c(c2c1)C[C@@]1(C)C(=O)N(CCCN2CCCCC2)CC(=O)N1[C@@H]3c1cccc(O)c1` (racemic) [Example 27, (6RS,12aSR)-6-(3-Hydroxy-phenyl)-10-methoxy-12a-methyl-2-(3-piperidin-1-yl-n-propyl)-2,3,6,7,12,12a-hexahydro-pyrazino[1',2':1,6]pyrido[3,4-b]indole-1,4-dione]: the EC50 is 100 to 1000 nM.
For the compound `COc1ccc2[nH]c3c(c2c1)C[C@@]1(C)C(=O)N(CCN2CCCC2)CC(=O)N1[C@@H]3c1cccc(O)c1` (racemic) [Example 9, (6RS,12aSR)-6-(3-Hydroxy-phenyl)-10-methoxy-12a-methyl-2-(2-pyrrolidin-1-yl-ethyl)-2,3,6,7,12,12a-hexahydro-pyrazino[1',2':1,6]pyrido[3,4-b]indole-1,4-dione], the EC50 was no more than 100 nM.
Next, `COc1ccc2[nH]c3c(c2c1)C[C@@]1(C)C(=O)N(CCN2CCCCC2)CC(=O)N1[C@@H]3c1cccc(O)c1` (racemic) [Example 11, (6RS,12aSR)-6-(3-Hydroxy-phenyl)-10-methoxy-12a-methyl-2-(2-piperidin-1-yl-ethyl)-2,3,6,7,12,12a-hexahydro-pyrazino[1',2':1,6]pyrido[3,4-b]indole-1,4-dione]: no more than 100 nM.
